Assay results: paper PMC7828447, “Design, Synthesis and Biological Evaluation of Arylpyridin-2-yl Guanidine Derivatives and Cyclic Mimetics as Novel MSK1 Inhibitors. An Application in an Asthma Model” (Molecules, 2021)
Structures can show the parent of a compound that is named as a salt. Where two headings read alike, the source gives them in different places.

How the values were obtained:
[1] = biological target: T1, human synthetic MSK1 (14-438-K, Millipore) (Homo sapiens, UniProt O75582); test: MSK1 enzymatic inhibition assay (Kinase-Glo luminescence); format: biochemical; settings: for MSK1 inhibitory activity (in words): tested at 1 and 10 µM; for inhibition at 1 µM: read-out: MSK1 % Inhibition 1 µM; for inhibition at 10 µM: read-out: MSK1 % Inhibition 10 µM; for IC50: 8 concentrations 0.03-100 µM
T1 construct: purchased Millipore 14-438-K
T1 sequence (O75582 whole entry): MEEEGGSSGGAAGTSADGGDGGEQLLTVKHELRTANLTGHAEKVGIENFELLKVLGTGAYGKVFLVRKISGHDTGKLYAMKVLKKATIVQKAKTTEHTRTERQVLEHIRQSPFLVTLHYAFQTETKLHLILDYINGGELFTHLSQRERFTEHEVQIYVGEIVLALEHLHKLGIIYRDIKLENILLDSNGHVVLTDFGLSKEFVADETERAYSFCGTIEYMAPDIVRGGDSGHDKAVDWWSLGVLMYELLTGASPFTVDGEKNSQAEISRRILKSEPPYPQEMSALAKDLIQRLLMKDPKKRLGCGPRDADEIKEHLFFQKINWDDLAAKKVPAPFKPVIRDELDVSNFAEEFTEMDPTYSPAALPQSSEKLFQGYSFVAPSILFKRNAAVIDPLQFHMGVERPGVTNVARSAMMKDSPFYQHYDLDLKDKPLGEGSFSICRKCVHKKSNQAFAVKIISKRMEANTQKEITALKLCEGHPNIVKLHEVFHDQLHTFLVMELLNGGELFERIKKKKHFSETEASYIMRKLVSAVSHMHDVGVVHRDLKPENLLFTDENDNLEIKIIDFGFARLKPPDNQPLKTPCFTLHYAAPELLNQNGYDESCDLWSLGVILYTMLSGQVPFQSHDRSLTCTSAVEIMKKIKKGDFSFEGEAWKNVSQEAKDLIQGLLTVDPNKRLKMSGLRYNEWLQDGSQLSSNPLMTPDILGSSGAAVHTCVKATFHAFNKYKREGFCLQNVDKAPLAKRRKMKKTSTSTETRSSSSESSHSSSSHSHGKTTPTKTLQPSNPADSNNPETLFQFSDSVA
Experimental: All results are summarized in Table 1, Table 2, Table 3, Table 4 and Table 5 and on Figure 4. […]
An orthogonal luminescence-based assay Kinase-Glo® (Promega, Madison, WI, USA) was used to validate the hits, quantifying the amount of the remaining ATP in the solution following the kinase reaction. Enzymatic reactions were performed up to 4h at room temperature in presence of 3 µM ATP. All compounds were tested in quadruplicates at 1 µM and 10 µM. […] Luminescence was measured with EnVision Plate Reader (Perkin Elmer).

[2] = compound at 1 µM, ± Standard Deviation (n = 4)
[3] = compound at 10 µM, ± Standard Deviation (n = 4)
[4] = ± Standard Deviation (n = 4), read-out: MSK1 IC50
[5] = MSK1 IC50, ± Standard Deviation (n = 4)

| Compound | MSK1 inhibitory activity (in words) [1] | inhibition at 1 µM [1, 2] | inhibition at 10 µM [1, 3] | also measured |
| --- | --- | --- | --- | --- |
| 6-Phenyl-3,4-dihydrobenzodiazepin-2-amine Hydrochloride [Compound 57] | inactive | – | – | MSK1 % Inhibition 1 µM [1, 2]: 8±6%; MSK1 % Inhibition 10 µM [1, 3]: 12±6% |
| N=C(N)Nc1cccc(N2CCCCC2)n1 (as salt: salt) [Compound 31, 2-guanidino-6-piperidinopyridine] | – | – | – | melting point: 196 to 197 °C |
| N=C(N)Nc1cccc(-c2ccccc2F)n1 (as salt: trifluoroacetate) [Compound 1j, 1-[6-(2-Fluorophenyl)pyridin-2-yl] guanidiniumtrifluoroacetate] | – | – | – | melting point: 199 to 200 °C |
| Cc1ccccc1-c1cccc(NC(=N)N)n1 (as salt: trifluoroacetate) [Compound 1l, 1-[6-(2-Methylphenyl)pyridin-2-yl] guanidiniumtrifluoroacetate] | – | – | – | melting point: 168 to 169 °C |
| N=C(N)Nc1cccc(-c2ccc(Cl)cc2Cl)n1 (as salt: trifluoroacetate) [Compound 1p, 1-[6-(2,4-Dichlorophenyl)pyridin-2-yl] guanidiniumtrifluoroacetate] | – | – | – | melting point: 196 to 197 °C |
| N=C(N)Nc1cccc(-c2cc(Cl)ccc2Cl)n1 (as salt: trifluoroacetate) [Compound 1q, 1-[6-(2,5-Dichlorophenyl)pyridin-2-yl] guanidiniumtrifluoroacetate] | – | – | – | melting point: 151 to 152 °C |
| N=C(N)Nc1cccc(-c2ccc(Cl)cc2)n1 [Compound 1b] | inactive | -4 ± 5% | 23 ± 1% | – |
| COc1ccc(-c2cccc(NC(=N)N)n2)cc1 [Compound 1d] | inactive | -5 ± 3% | -3 ± 4% | – |
| N=C(N)Nc1cccc(-c2cccc(Cl)c2)n1 [Compound 1e] | – | 0% | 45 ± 5% | IC50 [1, 4]: 9.7 ± 1 µM |
| COc1cccc(-c2cccc(NC(=N)N)n2)c1 [Compound 1f] | inactive | -7 ± 4% | 16 ± 4% | – |
| N=C(N)Nc1cccc(-c2cccc(C(F)(F)F)c2Cl)n1 [Compound 1i, 1-[6-(2-chloro-3-trifluoromethylphenyl)pyridin-2-yl] guanidinium trifluoroacetate] | – | 10 ± 5% | 62 ± 15% | IC50 [1, 4]: 8.6 ± 0.9 µM |
| N=C(N)Nc1cccc(-c2ccccc2Cl)n1 [Compound 1k] | – | 62 ± 8% | 95 ± 8% | IC50 [1, 4]: 0.6 ± 0.1 µM |
| Cc1ccccc1-c1cccc(NC(=N)N)n1 [Compound 1l, 1-[6-(2-Methylphenyl)pyridin-2-yl] guanidiniumtrifluoroacetate] | – | 4 ± 8% | 48 ± 15% | IC50 [1, 4]: 3.5 ± 0.3 µM |
| COc1ccccc1-c1cccc(NC(=N)N)n1 [Compound 1n] | – | 16 ± 3% | 66 ± 12% | IC50 [1, 4]: 2.3 ± 0.3 µM |
| N=C(N)Nc1cccc(-c2ccc(Cl)cc2Cl)n1 [Compound 1p, 1-[6-(2,4-Dichlorophenyl)pyridin-2-yl] guanidiniumtrifluoroacetate] | – | 2 ± 2% | 31 ± 7% | IC50 [1, 4]: > 30 µM |
| N=C(N)Nc1cccc(-c2ccncc2)n1 [Compound 1r, 1-[6-(Pyridin-4-yl)pyridin-2-yl] guanidiniumtrifluoroacetate] | – | – | 18 ± 2% | – |
| N=C(N)Nc1cccc(-c2cccnc2)n1 [Compound 1s, 1-[6-(Pyridin-3-yl)pyridin-2-yl] guanidinium trifluoroacetate] | – | – | 70 ± 7% | IC50 [1, 4]: 5.8 ± 0.6 µM |
| N=C(N)Nc1cccc(-c2cccnc2Cl)n1 [Compound 1t, 1-(2′-Chloro-[2,3′-bipyridin]-6-yl) guanidiniumtrifluoroacetate] | – | – | – | IC50 [1, 5]: 12.6 ± 4 µM; inhibition at 10 µM [1]: 69 ± 11% |
| COc1ncccc1-c1cccc(NC(=N)N)n1 [Compound 1u, 1-(2′-Methoxy-[2,3′-bipyridin]-6-yl) guanidiniumtrifluoroacetate] | abolished the inhibitory activity | – | – | IC50 [1, 5]: > 30 µM; inhibition at 10 µM [1]: 42 ± 7% |

| Compound | MSK1 inhibitory activity (in words) [1] | inhibition at 1 µM [1, 2] | inhibition at 10 µM [1, 3] | also measured |
| --- | --- | --- | --- | --- |
| N=C(N)Nc1ccc(-c2ccccc2)cn1 [Compound 12, 5-phenyl pyridinylguanidine] | inactive | -10 ± 2% | -11 ± 1% | – |
| N=C(N)Nc1cc(-c2ccccc2)ccn1 [Compound 13] | inactive | -4 ± 1% | 5 ± 1% | – |
| N=C(N)Nc1ncccc1-c1ccccc1 [Compound 14] | inactive | 1 ± 5% | 11 ± 5% | – |
| N=C(N)Nc1cccc(Cc2ccccc2)n1 [Compound 17, 1-(6-Benzylpyridin-2-yl) guanidiniumtrifluoroacetate] | inactive | – | – | inhibition at 1 µM [1]: -2 ± 1%; inhibition at 10 µM [1]: -2 ± 3% |
| N=C(N)Nc1cccc(CCc2ccccc2)n1 [Compound 24] | inactive | -4 ± 1% | -8 ± 1% | – |
| N=C(N)Nc1ccc(CCc2ccccc2)cn1 [Compound 25] | – | 2 ± 4% | 6 ± 4% | – |
| N=C(N)Nc1cccc(N2CCCCC2)n1 [Compound 31, 2-guanidino-6-piperidinopyridine] | totally inactive | – | 16 ± 4% | – |
| NC(=S)Nc1cccc(-c2ccccc2)n1 [Compound 33, 1(6-phenylpyridin-2-yl)thiourea] | inactive | 2 ± 10% | 5 ± 3% | – |
| COc1ccc(-c2cccc3c2CNC(N)=N3)cc1 [Compound 37c, 5-(4-Methoxyphenyl)-3,4-dihydroquinazolin-2-amine Hydrobromide] | – | -7 ± 4% | -5 ± 5% | – |
| NC1=Nc2ccc(-c3ccccc3)cc2CN1 [Compound 43] | – | 7 ± 9% | 9 ± 6% | – |
| Nc1nc2c(-c3cccc(Cl)c3Cl)cccc2[nH]1 [Compound 49e, 4-(2,3-Dichlorophenyl)-1H-benzo[d]imidazol-2-amine Hydrobromide] | – | 20 ± 3% | 75 ± 8% | IC50 [1, 4]: 3.2 ± 0.2 µM |
| Nc1nc2cc(-c3ccccc3)ccc2[nH]1 [Compound 50] | – | -7 ± 5% | 4 ± 4% | – |
| O=c1[nH]c2cccc(-c3ccccc3Cl)c2[nH]1 [Compound 64] | inactivity | -18 ± 5% | 0% | – |
| Nc1nc2c(-c3ccccc3Cl)cccc2s1 [Compound 67] | inactivity | -28 ± 7% | 4 ± 14% | – |
| Nc1nc2c(-c3ccccc3Cl)cccc2n1CCc1ccccc1 [Compound 74a] | – | -6 ± 3% | 41 ± 6% | – |
| Nc1nc2c(-c3ccccc3Cl)cccc2n1CCO [Compound 74b] | – | -2 ± 4% | 49 ± 13% | – |
| Nc1nc2c(-c3ccccc3Cl)cccc2n1CCCNC(=O)c1ccccc1 [Compound 74c] | – | -4 ± 2% | 37 ± 5% | – |
| Nc1nc2c(-c3ccccc3Cl)cccc2n1CCCCc1ccccc1 [Compound 74d] | – | 1 ± 3% | 5 ± 3% | – |
| Nc1nc2cccc(-c3ccccc3Cl)c2n1CCc1ccccc1 [Compound 75] | – | -6 ± 2% | 1 ± 2% | – |
